In ChEMBL document CHEMBL1201862, “PubChem BioAssay data set” (2004):
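The compound was tested at five concentrations on cells cultured in 96-well plates, with a 48-hour exposure period. Abbreviation: GI50, concentration required for 50% inhibition of growth.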 Activity calls are given as the source filed them. No stated cut-off is given here; in the data, active = GI50 up to about 1.1 µM and inactive = higher.

Columns and labels:
Test in all cases: NCI tumour cell line growth inhibition, 48 h
MOLT-4 = test system: MOLT-4
SF-295 = test system: SF-295
SF-268 = test system: SF-268
K562 = test system: K562
SNB-75 = test system: SNB-75
M19-MEL = test system: M19-MEL
Malme-3M = test system: Malme-3M
NCI-H460 = test system: NCI-H460
SNB-19 = test system: SNB-19
SK-OV-3 = test system: SK-OV-3
LXFL 529 = test system: LXFL 529
HOP-62 = test system: HOP-62
NCI-H226 = test system: NCI-H226
SK-MEL-2 = test system: SK-MEL-2
OVCAR-3 = test system: OVCAR-3
HL-60 = test system: HL-60
SF-539 = test system: SF-539
ACHN = test system: ACHN
RPMI-8226 = test system: RPMI-8226
HCT-116 = test system: HCT-116
UACC-257 = test system: UACC-257
COLO 205 = test system: COLO 205
UO-31 = test system: UO-31
TK-10 = test system: TK-10
DLD-1 = test system: DLD-1
HT-29 = test system: HT-29
IGROV-1 = test system: IGROV-1
SW-620 = test system: SW-620
NCI-H522 = test system: NCI-H522
U-251 = test system: U-251
HOP-18 = test system: HOP-18
KM12 = test system: KM12
SK-MEL-5 = test system: SK-MEL-5
UACC-62 = test system: UACC-62
SK-MEL-28 = test system: SK-MEL-28
OVCAR-5 = test system: OVCAR-5
HOP-92 = test system: HOP-92
CCRF-CEM = test system: CCRF-CEM
A549 = test system: A549
NCI-H23 = test system: NCI-H23
CAKI-1 = test system: CAKI-1
M14 = test system: M14
EKVX = test system: EKVX
RXF 393 = test system: RXF 393
786-0 = test system: 786-0
OVCAR-8 = test system: OVCAR-8
XF498 = test system: XF498
A498 = test system: A498
SN12C = test system: SN12C
HCC 2998 = test system: HCC 2998
KM-20L2 = test system: KM-20L2
DMS-273 = test system: DMS-273
OVCAR-4 = test system: OVCAR-4
LOX IMVI = test system: LOX IMVI
SNB-78 = test system: SNB-78
DMS-114 = test system: DMS-114
SR = test system: SR
HCT-15 = test system: HCT-15

Measured: GI50

COc1cc(C2C(Cl)C(=O)N2NC(=O)c2ccc(NC(C)=O)cc2)cc(OC)c1OC (stereo unspecified)
inactive: MOLT-4 > 100 µM | SF-295 > 100 µM | SF-268 > 100 µM | K562 > 100 µM | SNB-75 > 100 µM | M19-MEL > 100 µM | Malme-3M > 100 µM | NCI-H460 > 100 µM | SNB-19 > 100 µM | SK-OV-3 > 100 µM | LXFL 529 > 100 µM | HOP-62 > 100 µM | NCI-H226 > 100 µM | SK-MEL-2 > 100 µM | OVCAR-3 > 100 µM | HL-60 > 100 µM | SF-539 > 100 µM | ACHN > 10 µM | RPMI-8226 > 100 µM | HCT-116 > 100 µM | UACC-257 > 100 µM | COLO 205 > 100 µM | UO-31 > 100 µM | TK-10 > 100 µM | DLD-1 > 100 µM | HT-29 > 100 µM | IGROV-1 > 100 µM | SW-620 > 100 µM | NCI-H522 > 100 µM | U-251 > 100 µM | HOP-18 > 100 µM | KM12 > 100 µM | SK-MEL-5 > 100 µM | UACC-62 > 100 µM | SK-MEL-28 > 100 µM | OVCAR-5 > 100 µM | HOP-92 > 100 µM | CCRF-CEM > 100 µM | A549 > 100 µM | NCI-H23 > 100 µM

Cc1cccc(-c2nnc3s/c(=C\c4ccc(N(C)C)cc4)c(=O)n23)c1
inactive: MOLT-4 > 100 µM | CAKI-1 > 100 µM | SF-295 > 100 µM | M14 > 100 µM | SF-268 > 100 µM | K562 > 100 µM | SNB-75 > 100 µM | M19-MEL > 100 µM | Malme-3M > 100 µM | NCI-H460 > 100 µM | EKVX > 100 µM | SNB-19 > 100 µM | SK-OV-3 > 100 µM | RXF 393 > 100 µM | LXFL 529 > 100 µM | HOP-62 > 100 µM | NCI-H226 > 100 µM | SK-MEL-2 > 100 µM | 786-0 > 100 µM | OVCAR-8 > 100 µM | OVCAR-3 > 100 µM | HL-60 > 100 µM | SF-539 > 100 µM | XF498 > 100 µM | ACHN > 100 µM | RPMI-8226 > 100 µM | HCT-116 > 100 µM | A498 > 100 µM | UACC-257 > 100 µM | COLO 205 > 100 µM | SN12C > 100 µM | UO-31 > 100 µM | TK-10 > 100 µM | DLD-1 > 100 µM | HCC 2998 > 100 µM | KM-20L2 > 100 µM | IGROV-1 > 100 µM | SW-620 > 100 µM | NCI-H522 > 100 µM | U-251 > 100 µM | HOP-18 > 100 µM | DMS-273 > 100 µM | OVCAR-4 > 100 µM | LOX IMVI > 100 µM | KM12 > 100 µM | SK-MEL-5 > 100 µM | UACC-62 > 100 µM | SK-MEL-28 > 100 µM | OVCAR-5 > 100 µM | HOP-92 > 100 µM | CCRF-CEM > 100 µM | A549 > 100 µM | NCI-H23 > 100 µM | SNB-78 > 100 µM

COC(=O)C1CC(c2ccc(Cl)cc2)=NO1 (stereo unspecified)
> 100 µM: HCT-15
inactive: MOLT-4 > 100 µM | CAKI-1 6.17 µM | SF-295 > 100 µM | M14 > 100 µM | DMS-114 > 100 µM | SR > 100 µM | SF-268 > 100 µM | K562 > 100 µM | SNB-75 > 100 µM | M19-MEL > 100 µM | Malme-3M > 100 µM | NCI-H460 > 100 µM | EKVX > 100 µM | SK-OV-3 > 100 µM | LXFL 529 > 100 µM | HOP-62 > 100 µM | NCI-H226 > 100 µM | SK-MEL-2 > 100 µM | 786-0 > 100 µM | OVCAR-8 > 100 µM | OVCAR-3 > 100 µM | HL-60 > 100 µM | SF-539 > 100 µM | ACHN > 100 µM | RPMI-8226 > 100 µM | HCT-116 > 100 µM | A498 > 100 µM | UACC-257 > 100 µM | COLO 205 > 100 µM | SN12C > 100 µM | UO-31 > 100 µM | TK-10 > 100 µM | DLD-1 > 100 µM | HT-29 > 100 µM | HCC 2998 > 100 µM | KM-20L2 > 100 µM | IGROV-1 > 100 µM | SW-620 > 100 µM | NCI-H522 > 100 µM | U-251 > 100 µM | HOP-18 > 100 µM | DMS-273 > 100 µM | OVCAR-4 > 100 µM | KM12 > 100 µM | SK-MEL-5 > 100 µM | UACC-62 > 100 µM | SK-MEL-28 > 100 µM | OVCAR-5 > 100 µM | HOP-92 > 100 µM | CCRF-CEM > 100 µM | A549 > 100 µM | NCI-H23 > 100 µM | SNB-78 > 100 µM

CCCNCC(=O)O[C@]1(CC)C(=O)OCc2c1cc1n(c2=O)Cc2cc3ccccc3nc2-1
active: MOLT-4 < 0.01 µM | SF-295 < 0.01 µM | M14 0.0681 µM | DMS-114 0.0187 µM | SR < 0.01 µM | SF-268 < 0.01 µM | K562 0.181 µM | SNB-75 0.0429 µM | M19-MEL 0.194 µM | Malme-3M 0.334 µM | NCI-H460 < 0.01 µM | SNB-19 0.0364 µM | SK-OV-3 0.0679 µM | RXF 393 0.0397 µM | HOP-62 < 0.01 µM | NCI-H226 0.0121 µM | 786-0 < 0.01 µM | OVCAR-8 0.161 µM | OVCAR-3 0.457 µM | HL-60 < 0.01 µM | SF-539 0.0118 µM | XF498 < 0.01 µM | ACHN < 0.01 µM | RPMI-8226 0.0498 µM | HCT-116 0.164 µM | A498 0.163 µM | UACC-257 0.163 µM | COLO 205 0.908 µM | SN12C < 0.01 µM | UO-31 0.0637 µM | HT-29 0.274 µM | HCC 2998 0.661 µM | KM-20L2 0.416 µM | IGROV-1 0.325 µM | NCI-H522 0.0271 µM | U-251 < 0.01 µM | HOP-18 0.123 µM | DMS-273 < 0.01 µM | OVCAR-4 0.69 µM | LOX IMVI 0.0134 µM | KM12 0.528 µM | SK-MEL-5 0.119 µM | UACC-62 < 0.01 µM | OVCAR-5 0.129 µM | HOP-92 0.325 µM | CCRF-CEM < 0.01 µM | A549 0.0322 µM | NCI-H23 0.0149 µM
inactive: EKVX 25.1 µM | LXFL 529 1.42 µM | SK-MEL-2 1.13 µM | TK-10 4.43 µM | DLD-1 2.07 µM | SK-MEL-28 2.31 µM

Fc1nc(F)nc(-c2c3ccccc3c3n2CCS3)n1
54.8 µM: HCT-15
inactive: MOLT-4 > 10 µM | CAKI-1 > 100 µM | SF-295 53.3 µM | M14 71.1 µM | DMS-114 > 100 µM | SR 37 µM | SF-268 70.5 µM | K562 47.5 µM | SNB-75 22.8 µM | M19-MEL > 100 µM | Malme-3M > 100 µM | NCI-H460 61.4 µM | EKVX > 100 µM | SNB-19 > 100 µM | SK-OV-3 > 100 µM | RXF 393 91.2 µM | LXFL 529 58.1 µM | HOP-62 39.7 µM | NCI-H226 > 100 µM | SK-MEL-2 44.5 µM | 786-0 78.5 µM | OVCAR-3 > 100 µM | HL-60 46.8 µM | SF-539 > 100 µM | XF498 23.4 µM | ACHN > 100 µM | RPMI-8226 33 µM | HCT-116 65.5 µM | A498 30.8 µM | COLO 205 > 100 µM | SN12C > 100 µM | UO-31 84.5 µM | TK-10 > 10 µM | DLD-1 57.8 µM | HT-29 > 100 µM | HCC 2998 > 100 µM | KM-20L2 > 100 µM | IGROV-1 > 100 µM | SW-620 > 100 µM | NCI-H522 47.2 µM | U-251 29 µM | DMS-273 76.2 µM | OVCAR-4 98.9 µM | LOX IMVI 61.4 µM | KM12 47 µM | SK-MEL-5 50.1 µM | SK-MEL-28 > 100 µM | OVCAR-5 > 100 µM | HOP-92 39.4 µM | CCRF-CEM 33.1 µM | A549 > 100 µM | NCI-H23 > 100 µM | SNB-78 23 µM
